Measurements: US20250282802A1, “P[…] AND METHODS” (priority 2020, published 2025)
Like-named read-outs stand apart in the source and are kept apart here.

Assays:
HOS (human osteosarcoma) = assay: Cell culture cytotoxicity screening (Alamar Blue), HOS; type: cell-based; details: 72 hours
Experimental: (§1) FIG. 8. Cytotoxicity of pantaphos across various cancer cell lines. Assays were conducted as described (mBio. 2021 Feb. 2; 12(1):e03402-20), using the Alamar Blue method with 72-hour treatment using Raptinal ([…]) as Dead cell control; n=3. Cell seeding densities: CT26 (colon carcinoma) 2000 c/w; HOS (osteosarcoma) 2500 c/w; ES-2 (ovarian carcinoma), HCT-116 (colorectal carcinoma), A-549 (lung carcinoma), A-172 (glioblastoma), D54 (glioblastoma), U87 (glioblastoma), T98G (glioblastoma), SK-ML-28 (melanoma), MCF-7 (breast cancer), AM38 (glioblastoma) and MDA-MB-231 (breast cancer) 3000 c/w; U118MG (malignant glioma) 4000 c/w; HepG2 (liver cancer) 8000 c/w. c/w=cells per well. […]
(§2) Cell culture cytotoxicity screening. The compounds were evaluated for their ability to kill cancer cell lines in culture, using HOS (osteosarcoma); ES-2 (ovarian cancer); HCT 116 (colon cancer); A549 (lung carcinoma); and A172 (glioma) cells. Human skin fibroblast cells (HFF-1) were also assessed. […] 72 hours post-treatment, cell viability was assessed using the Alamar Blue method (http://www.bio-rad-antibodies.com/measuring-cytotoxicity-proliferation-spectrophotometry-fluorescence-alamarBlue.html). […] Conversion of Alamar Blue was measured with a plate reader (SpectraMax M3; Molecular Devices) by fluorescence (excitation wavelength: 555 nm; emission wavelength: 585 nm; cutoff 570 nm; autogain). […]

[1] = tested on: A-549 (human lung carcinoma); assay: Cell culture cytotoxicity screening (Alamar Blue), A-549; type: cell-based; details: A549, A-549, Alamar Blue, 72 hours
Experimental: as §1, §2

AM38 (glioblastoma) = assay: Cytotoxicity profiling (Alamar Blue), AM38; type: cell-based, human
Experimental: FIG. 8. Cytotoxicity of pantaphos across various cancer cell lines. Assays were conducted as described (mBio. 2021 Feb. 2; 12(1):e03402-20), using the Alamar Blue method with 72-hour treatment using Raptinal ([…]) as Dead cell control; n=3. Cell seeding densities: CT26 (colon carcinoma) 2000 c/w; HOS (osteosarcoma) 2500 c/w; ES-2 (ovarian carcinoma), HCT-116 (colorectal carcinoma), A-549 (lung carcinoma), A-172 (glioblastoma), D54 (glioblastoma), U87 (glioblastoma), T98G (glioblastoma), SK-ML-28 (melanoma), MCF-7 (breast cancer), AM38 (glioblastoma) and MDA-MB-231 (breast cancer) 3000 c/w; U118MG (malignant glioma) 4000 c/w; HepG2 (liver cancer) 8000 c/w. c/w=cells per well. IC50 and Emax values shown in Table 6 were extracted from the raw data plotted in FIG. 8.
Cell culture cytotoxicity screening. The compounds were evaluated for their ability to kill cancer cell lines in culture, using HOS (osteosarcoma); ES-2 (ovarian cancer); HCT 116 (colon cancer); A549 (lung carcinoma); and A172 (glioma) cells. Human skin fibroblast cells (HFF-1) were also assessed. Cells were seeded (3000 cells well^−1 for ES-2, HCT 116, A549 and A172; 4000 cells well^−1 for HFF-1 and 2500 cells well^−1 for HOS) in a 96-well plate and allowed to attach overnight. Cells were treated with pantaphos in water. The concentrations of the tested compounds were 5 nM to 100 μM (1% water final; 100 μl well^−1). Raptinal (50 μM) was used as a dead control. On each plate, five technical replicates per compound were performed. 72 hours post-treatment, cell viability was assessed using the Alamar Blue method (http://www.bio-rad-antibodies.com/measuring-cytotoxicity-proliferation-spectrophotometry-fluorescence-alamarBlue.html). […] Conversion of Alamar Blue was measured with a plate reader (SpectraMax M3; Molecular Devices) by fluorescence (excitation wavelength: 555 nm; emission wavelength: 585 nm; cutoff 570 nm; autogain). Percentage death was determined by normalizing to water-treated cells and Raptinal-treated cells. […]

[2] = tested on: Enterococcus faecalis ATCC 19433; assay: Antibacterial bioassay (MIC), Enterococcus faecalis; type: cell-based; details: ATCC19433, Mueller-Hinton 2 medium, CLSI, read-out: MIC, Rich medium
Experimental: (§3) Antibacterial bioassays. Susceptibility testing for the ESKAPE pathogens and Salmonella enterica LT2 was performed using a Kirby-Bauer method as outlined by the Clinical and Laboratory Standards Institute (CLSI). For rich media bioassays, Mueller Hinton Broth 2 (MH-2, Sigma-Aldrich, 90922) was used for all strains except 1% BHI was supplemented for Enterococcus faecalis ATCC 19433. For minimal media bioassays, glucose-MOPS minimal medium was used. Briefly, overnight bacterial cultures were sub-cultured and inoculated into 5 mL top agar (0.7% agar) for final concentration of 5×10^5 CFU/mL. Then, 20 μL of a compound 2-fold dilution series (200, 100, 50, 25, 12.5, 6.25 μM in water) was spotted on 6 mm diameter blank paper discs (BD BBL™ 231039). Control discs received 20 μL of 50 mg/mL kanamycin. Plates were incubated at 35° C. for 20-24 hours. […] Sensitivity of the IPTG-inducible phosphonate uptake strain WM6242 to pantaphos was tested using a disk diffusion assay. Plates containing growth medium were overlayed with 5 mL of top agar (0.7% agar) inoculated with 100 μL (OD600=0.8) of the phosphonate-specific E. coli indicator strain (WM6242) with or without addition of 1 mM IPTG. WM6242 is engineered with an IPTG-inducible, non-specific phosphonate uptake system (phnCDE). […]

[3] = tested on: Staphylococcus aureus ATCC 29213; assay: Antibacterial bioassay (MIC), Staphylococcus aureus; type: cell-based; details: CLSI
Experimental: as §3

[4] = tested on: Escherichia coli ATCC 25922; assay: Antibacterial bioassay (MIC), Escherichia coli ATCC 25922; type: cell-based; details: CLSI
Experimental: as §3

[5] = read-out: Emax = percentage cell death (converted)

O=C(O)/C=C(\C(=O)O)C(O)P(=O)(O)O (stereo not drawn) [pantaphos, 2-(hydroxy(phosphono)methyl)maleate]
IC50 (HOS (human osteosarcoma)): 37 ± 6.28 µM | Emax (HOS (human osteosarcoma); [5]): 58% | IC50 [1]: 14.7 ± 0.61 µM | Emax [1, 5]: 66% | sensitivity of the cell line to the compound, in words (AM38 (glioblastoma); AM38): sensitive | Emax (AM38 (glioblastoma); Homo sapiens, AM-38, AM38, Alamar Blue, 72-hour treatment): 74 to 78% | IC50 (AM38 (glioblastoma); Homo sapiens, AM-38, AM38, Alamar Blue, 72-hour treatment (Table 6)): 3.97 ± 1.01 µM | MIC [2]: > 200 µM | MIC ([3]; ATCC29213, Mueller-Hinton 2 medium, read-out: MIC, Rich medium): > 200 µM | MIC ([3]; ATCC29213, glucose-MOPS minimal medium, read-out: MIC, Minimal medium): > 200 µM | MIC ([4]; ATCC25922, Mueller-Hinton 2 medium, read-out: MIC, Rich medium): > 200 µM | MIC ([4]; ATCC25922, glucose-MOPS minimal medium, read-out: MIC, Minimal medium): > 200 µM
